Patent publication US9879243B2, “Culture medium for cell growth and transfection” (LIFE TECHNOLOGIES CORPORATION, priority 2001, dated 2018)

Legend:
[1] = tested on: Sp2/0 cells; assay: Effect of replacement compounds on the growth of Sp2/0 cells in CD Hybridoma medium without transferrin, three passages; assay type: cell-based; settings: third passage
Protocol: The ability of replacement compounds to support cellular growth in the absence of transferrin was evaluated using Sp2/0 cells maintained in CD Hybridoma medium (Invitrogen Corporation, Carlsbad, Calif.).
Stock cultures containing 5 μg/mL human holo-transferrin were prepared in CD Hybridoma medium. For replacement compound evaluation, Sp2/0 cells were established at an initial viable cell density of 0.5×10^5 cells/mL in stationary culture using 75 cm^2 tissue culture flasks in a final volume of 20 mL. All cultures were maintained at 37° C. in humidified air containing 8% CO2. To eliminate transferrin carry-over effects, cells were subcultured at the same seeding density at 4 day intervals for a total of three passages. Positive control cultures contained 5 μg/mL human holo-transferrin while negative control cultures were established in the absence of either transferrin or replacement compound. Replacement compound stocks were prepared at 0.1M-0.2M in ddH2O and solubilized when necessary using 5N NaOH or HCl. Iron complexes were established using 0.2M replacement compound and iron stocks mixed 1:1 (v/v) and incubated for 5-10 minutes at 22° C. All solutions containing replacement compounds were filter sterilized using a 0.22 μm Millex-GV filter prior to addition to transferrin and serum-free media.
(§1) Except where otherwise noted, replacement compounds were evaluated either alone or in combination with ferric chloride or ferrous sulfate at 25 μM, 50 μM and 100 μM. Values in the table represent the mean percentage of control growth for duplicate cultures determined at the third passage.
When added to the medium formulation un-complexed, the replacement compound is listed alone, when added as a complex with a transition metal, the source of the transition metal is listed with the replacement compound.

[2] = tested on: 293 cells; assay: Effect of replacement compounds on the growth of 293 cells in 293 SFM without transferrin, three passages; assay type: cell-based, human; settings: third passage, control 5 μg/mL human holo-transferrin
Protocol: Semi-confluent adherent cultures of 293 Cells (ATCC, CRL 1573) are readily adapted to suspension culture. The cells are first detached with a solution of Trypsin-EDTA (0.05% Trypsin, 0.53 mM Na4EDTA), and then resuspended in conventional medium supplemented with 10% FBS to inhibit the trypsin. The resuspended cells are centrifuged at 200×g for five minutes.
The initial seeding density of the 293 cells after conversion to suspension culture is 1×10^6 cells/mL. The cells are shaken on a rotary shaker at 150 rpm in a 37° C. incubator equilibrated with 8% CO2-92% air. […] Because 293 cells have a tendency to aggregate, the cells can be vortexed vigorously for approximately 45 seconds to obtain a predominantly single cell suspension at the time of passaging and counting. After several passages in suspension culture, the maximum achievable density can be determined.
For replacement compound evaluation, 293 cells were established in 125 mL shaker flasks at an initial viable seeding density of 2×10^5 cells/mL in a final volume of 20 mL. All cultures were maintained at 37° C. in humidified air containing 8% CO2. To eliminate transferrin carry-over effects, cells were subcultured at 4 day intervals for a total of three passages. At each subculturing, cells were seeded at a density of 2×10^5 cells/mL. Positive control cultures contained 5 μg/mL human holo-transferrin while negative control cultures were established in the absence of either transferrin or replacement compound. Replacement compound stocks were prepared at 0.1M-0.2M in ddH2O and solubilized when necessary using 5N NaOH or HCl. Iron complexes were established using 0.2 M replacement compound and iron stocks mixed 1:1 (v/v) and incubated for 5-10 minutes at 22° C. All solutions containing replacement compounds were filter sterilized using a 0.22 μm Millex-GV filter prior to addition to transferrin and serum-free media.
as §1, with “where” for “where otherwise”, “μM. When used in combination, the replacement compounds were used in equimolar concentration with iron ions.” for “μM.”, “Table 4” for “the table”
When added to the medium formulation uncomplexed, the replacement compound is listed alone, when added as a complex with a transition metal, the source of the transition metal is listed with the replacement compound.

[3] = tested on: CHO cells; assay: Effect of replacement compounds on the growth of CHO cells in CD CHO medium without transferrin, three passages; assay type: cell-based, Chinese hamster; settings: third passage
Protocol: The ability of replacement compounds to support cellular growth in the absence of transferrin was evaluated using CHO cells maintained in CD CHO medium (Invitrogen Corporation, Carlsbad, Calif., the formulation of which is described in WO 98/08934). Stock cultures containing 5 μg/mL human holo-transferrin were prepared in CD CHO medium. For replacement compound evaluation, CHO cells were established in 125 mL shaker flasks at an initial viable seeding density of 1×10^5 cells/mL in a final volume of 20 mL. All cultures were maintained at 37° C. in humidified air containing 8% CO2. To eliminate transferrin carry-over effects, cells were subcultured at 4 day intervals for a total of three passages. Positive control cultures contained 5 μg/mL human holo-transferrin while negative control cultures were established in the absence of either transferrin or replacement compound. Replacement compound stocks were prepared at 0.1M-0.2M in ddH2O and solubilized when necessary using 5N NaOH or HCl. Iron complexes were established using 0.2M replacement compound and iron stocks mixed 1:1 (v/v) and incubated for 5-10 minutes at 22° C. All solutions containing replacement compounds were filter sterilized using a 0.22 μm Millex-GV filter prior to addition to transferrin and serum-free media.
Except where noted, replacement compounds were evaluated either alone or in combination with ferric chloride or ferrous sulfate at 25 μM, 50 μM and 100 μM. Values in the table represent the mean percentage of control growth for duplicate cultures determined at the third passage.
The ability of various replacement compounds to substitute for transferrin in the culture of CHO cells was determined. When added to the medium formulation un-complexed, the replacement compound is listed alone, when added as a complex with a transition metal, the source of the transition metal is listed with the metal binding compound.

[4] = 25 μM, control 5 μg/mL human holo-transferrin
[5] = 25 μM, iron equimolar where combined

Compound | mean percentage of control growth [1, 4] | mean percentage of control growth ([1]; 50 μM) | mean percentage of control growth ([1]; 100 μM) | mean percentage of control growth [2, 5] | mean percentage of control growth ([2]; 50 μM) | mean percentage of control growth ([2]; 100 μM) | mean percentage of control growth [3, 4] | mean percentage of control growth ([3]; 50 μM) | mean percentage of control growth ([3]; 100 μM)
Serine Hydroxamate•Ferric Chloride | 46 percentage of control growth | 66 percentage of control growth | 62 percentage of control growth | 68 percentage of control growth | 65 percentage of control growth | 51 percentage of control growth | 106 percentage of control growth | 121 percentage of control growth | 124 percentage of control growth
O=C(O)c1ccccn1.[Cl][Fe]([Cl])[Cl] [2-Pyridinecarboxylic Acid•Ferric Chloride] | 0 percentage of control growth | 30 percentage of control growth | 48 percentage of control growth | – | – | – | 88 percentage of control growth | 89 percentage of control growth | 100 percentage of control growth
4-Pyridoxic Acid•Ferric Chloride | 40 percentage of control growth | 73 percentage of control growth | 76 percentage of control growth | 109 percentage of control growth | 85 percentage of control growth | 99 percentage of control growth | 55 percentage of control growth | 63 percentage of control growth | 100 percentage of control growth
Sorbitol•Ferric Chloride | 94 percentage of control growth | 55 percentage of control growth | 60 percentage of control growth | – | – | – | 100 percentage of control growth | 107 percentage of control growth | 112 percentage of control growth
Kojic Acid•Ferric Chloride | 0 percentage of control growth | 0 percentage of control growth | 0 percentage of control growth | – | – | – | 89 percentage of control growth | 88 percentage of control growth | 85 percentage of control growth
O=c1cc(CO)occ1O [Kojic Acid] | 0 percentage of control growth | 0 percentage of control growth | 0 percentage of control growth | – | – | – | 0 percentage of control growth | 0 percentage of control growth | 0 percentage of control growth
Cysteine•Ferrous Sulfate | 85 percentage of control growth | 79 percentage of control growth | 67 percentage of control growth | – | – | – | 83 percentage of control growth | 64 percentage of control growth | 45 percentage of control growth
Aspartic Acid•Ferric Chloride | – | – | – | 81 percentage of control growth | 86 percentage of control growth | 100 percentage of control growth | 77 percentage of control growth | 89 percentage of control growth | 112 percentage of control growth
[Cl][Fe]([Cl])[Cl].[O-][n+]1cccc(O)c1 [3-Hydroxypyridine-N-Oxide•Ferric Chloride] | 55 percentage of control growth | 54 percentage of control growth | 57 percentage of control growth | 77 percentage of control growth | 72 percentage of control growth | 81 percentage of control growth | 77 percentage of control growth | 66 percentage of control growth | 101 percentage of control growth
